In patent publication US12208080B2, “Compositions and methods for modulation of extracellular vesicle release and treatment of neurological disorders” (GEORGE MASON RESEARCH FOUNDATION, INC., priority 2018, dated 2025):

Experiments:
[1] = tested on: HIV-1 infected monocytes (U1); assay: Western blot/densitometry of EV-associated proteins (NT80/82-enriched supernatant) from U1 cells; type: cell-based; conditions: for CD81 (EV marker) in EVs / EV-associated Nef / EV-associated gp120: 1, 5, 20, 50 μM, FIG. 2C; for EV CD81 level / EV-associated Nef (30 kDa) / EV-associated myristoylated Nef dimer (70 kDa): CBD 1, 5, 10 μM, THC 1, 5, 10 μg/mL, FIG. 9A; for increase in EV-associated gp160 (densitometry): maximum, CBD lane 4 (10 μM), THC lane 7 (10 μg/mL)
[2] = tested on: HIV-1 infected monocytes (U1); assay: RT-qPCR of EV-associated HIV-1 TAR and env RNA from U1 cells; type: cell-based; conditions: 5 days; for reduction in TAR RNA within EVs: average from two replicates; for incorporation of TAR RNA into EVs / incorporation of env RNA into EVs: 1, 5, 20, 50 μM; for incorporation of TAR RNA into EVs: FIG. 3A; for incorporation of env RNA into EVs: FIG. 3B; for env RNA within EVs: FIG. 9C
[3] = tested on: HIV-1 infected U1 monocytic cells; assay: MTT cell viability assay; type: cell-based; conditions: CBD 1, 5, 10 μM, THC 1, 5, 10 μg/ml, 5 days, FIG. 7
Description: FIG. 7 is a graph showing cell viability analysis of cannabidiol components on HIV-1 infected monocytes. HIV-1 infected U1 monocytic cells (1×10^6) were treated with CBD (green bars) at 1, 5, 10 and 50 μM) or THC (blue bars) at 1, 5, 10 and 50 μg/mL) every day for 5 days. Cell viability was determined using the MTT assay. Student's t-test was used for statistical analysis, where n.s is not significant, *p-value≤0.05; **p-value≤0.01, ***p-value≤0.001.
Cells were cultured in RPMI with 10% exosome-free FBS at 10^6 cells per well in 6 well plates. Cells were treated with 0.005% ethanol (control), CBD (1, 5 10, 50 μm) and THC (1, 5, 10, 50 μg/mL) once per day for 5 days. The MTT assay was used to measure cell death according to manufacturer's protocol (Sigma). After incubating with MTT solution for 2 h, the culture medium was aspirated and 1 mL of MTT solvent was added to each well. Cell viability was determined by the formation of formazan crystal and measured by absorbance at 590 nm and 620 nm, as previously described (Cotto et al., 2018, Cocaine and HIV-1 Tat Disrupt Cholesterol Homeostasis in Astrocytes: Implications for HIV-Associated Neurocognitive Disorders in Cocaine User Patients. Glia, 66(4), 889-902).
Supernatants were harvested and analyzed using ZetaView NTA.

cdk9/Cyclin Ti = molecular target: T1, cdk9/Cyclin Ti (Homo sapiens, UniProt P50750); assay: Kinase assay: cdk9 immunoprecipitate, phosphorylation of histone H1; type: biochemical; conditions: for phosphorylation of Histone H1: U1, CBD 1 μM, THC 1 μg/mL every day for 5 days, anti-cdk9 IP, FIG. 17 legend
T1 construct: Lysates were immunoprecipitated with 10 μg of cdk9 or IgG antibodies overnight at 4° C; endogenous in cells; host or cells: U1 cells treated with CBD or THC for 5 days, then lysed and immunoprecipitated with anti-cdk9
Description: U1 cells (5×10^6) were treated with CBD (1 μM) and THC (1 μg/mL) every day for 5 days. Cells were then lysed, centrifuged and the supernatants (˜150 ug) incubated with anti-cdk9 and IgG antibodies as described in the Kinase Assay section (Materials and Methods), ran on a 4-20% gel and dried, followed by imaging for phosphorylated Histone 1 (p-H1). p-H1 Densitometry counts were calculated on the kinase blot and normalized to background gel pieces.
U1 cells (5×10^6) were treated with CBD (1 μM) and THC 1 μg/mL) every day for 5 d. Cells were pelleted by centrifugation at 15,000×g for 5 minutes, washed with 1×PBS, and lysed in 250 μL lysis buffer. Lysates were immunoprecipitated with 10 μg of cdk9 or IgG antibodies overnight at 4° C., followed by a 2 h incubation with A/G beads at 4° C. IP complexes were washed with TNE50+0.1% NP40 buffer and kinase buffer as described in (Guendel et al., 2014, Novel Neuroprotective GSK-3β Inhibitor Restricts Tat-Mediated HIV-1 Replication. Journal of Virology, 88(2), 1189-1208), followed by 1 h incubation period at 37° C. with γ-^32P ATP and purified histone H1. The samples (50%) were loaded and run through SDS-PAGE on a 4-20% Tris-Glycine gel, followed by staining with Coomassie blue, destain with destain buffer (50% methanol and 10% acetic acid), and dried for 2 h. The dried gels were exposed to a PhosphorImager Cassette, followed by analysis via Molecular Dynamic's ImageQuant Software.
U1 monocytes were treated with CBD (10 μM) and Flavo (50 nM) for short periods (0, 2 and 6 hours) due to the fact that HIV-1 transcription activity is a rapid event that can be scored using chromatin immunoprecipitation (ChIP) assay for factor occupancy. Treated samples were lysed and incubated with IgG control and Pol II (serine 2/5) antibodies for ChIP, followed by qPCR analysis for TAR DNA. […] As expected, there was no change in amount of TAR DNA pulled down with PolII with any treatment compared to the untreated control at 0 hours samples (lanes 1-3).

[4] = CBD 1, 5, 10 μM, THC 1, 5, 10 μg/mL

T1 sequence (P50750 whole entry): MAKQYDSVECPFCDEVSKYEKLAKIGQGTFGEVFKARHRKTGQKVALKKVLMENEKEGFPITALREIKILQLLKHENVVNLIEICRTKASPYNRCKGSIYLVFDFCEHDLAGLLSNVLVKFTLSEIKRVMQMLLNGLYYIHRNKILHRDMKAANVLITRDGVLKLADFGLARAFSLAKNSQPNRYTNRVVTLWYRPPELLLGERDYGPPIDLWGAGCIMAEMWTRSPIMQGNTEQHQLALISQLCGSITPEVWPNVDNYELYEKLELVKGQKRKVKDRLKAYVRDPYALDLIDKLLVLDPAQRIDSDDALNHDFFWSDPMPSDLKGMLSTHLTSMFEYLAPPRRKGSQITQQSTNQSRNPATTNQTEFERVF
T1 sequence (O60563 whole entry partner): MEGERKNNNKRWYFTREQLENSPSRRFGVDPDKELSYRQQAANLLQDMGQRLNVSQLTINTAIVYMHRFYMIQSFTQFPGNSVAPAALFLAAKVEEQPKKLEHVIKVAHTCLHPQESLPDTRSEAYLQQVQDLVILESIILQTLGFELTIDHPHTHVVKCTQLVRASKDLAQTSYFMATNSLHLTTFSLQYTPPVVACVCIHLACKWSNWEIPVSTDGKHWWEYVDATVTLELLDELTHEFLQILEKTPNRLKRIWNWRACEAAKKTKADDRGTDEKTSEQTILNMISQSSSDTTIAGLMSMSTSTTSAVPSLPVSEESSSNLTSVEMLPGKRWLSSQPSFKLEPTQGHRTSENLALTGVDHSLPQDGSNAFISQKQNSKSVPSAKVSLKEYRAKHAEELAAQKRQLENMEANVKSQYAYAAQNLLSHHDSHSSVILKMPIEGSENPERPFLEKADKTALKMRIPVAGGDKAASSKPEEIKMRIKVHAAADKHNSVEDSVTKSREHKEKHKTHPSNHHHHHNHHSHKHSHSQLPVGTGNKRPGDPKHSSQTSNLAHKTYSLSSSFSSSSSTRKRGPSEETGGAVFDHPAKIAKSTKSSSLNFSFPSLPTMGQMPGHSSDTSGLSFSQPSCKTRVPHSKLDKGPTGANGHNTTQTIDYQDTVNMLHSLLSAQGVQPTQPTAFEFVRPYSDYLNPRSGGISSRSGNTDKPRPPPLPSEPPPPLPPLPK

SMILES	CD81 (EV marker) in EVs ([1]; U1, 5 days)	EV-associated Nef ([1]; U1, 5 days)	EV-associated gp120 ([1]; U1, 5 days)	reduction in EV-associated gp120 (densitometry) ([1]; U1, CBD 1, 5, 10 μM (lanes 2-4), 5 days)	EV CD81 level ([1]; U1, 5 days)	EV-associated Nef (30 kDa) ([1]; U1, 5 days)	EV-associated myristoylated Nef dimer (70 kDa) ([1]; U1, 5 days)	reduction in EV CD81 expression (densitometry) ([1]; U1, low titer CBD (lane 2, 1 μM), 5 days, FIG. 10A) [%]	decrease in EV-associated Nef (30 kDa), densitometry ([1]; greatest reduction, lane 3 (CBD 5 μM), FIG. 10)	increase in EV-associated gp160 (densitometry) [1]	reduction in TAR RNA within EVs ([2]; 5 μM, FIG. 9B) [%]	reduction in TAR RNA within EVs ([2]; 10 μM, FIG. 9B) [%]	incorporation of TAR RNA into EVs [2]	incorporation of env RNA into EVs [2]	dose-dependent decrease in EV-associated TAR RNA ([2]; CBD 1, 5, 10 μM, THC 1, 5, 10 μg/mL, FIG. 9B)	env RNA within EVs [2, 4]	cell viability [3]	cdk9/Cyclin Ti activity in vitro (cdk9/Cyclin Ti; FIG. 17)	phosphorylation of Histone H1 (cdk9/Cyclin Ti)	decrease in EV-associated myristoylated Nef dimer (70 kDa), densitometry ([1]; greatest reduction, lane 7 (THC 10 μg/mL), FIG. 10)
C=C(C)[C@@H]1CCC(C)=C[C@H]1c1c(O)cc(CCCCC)cc1O [CBD, 2-[1R-3-methyl-6R-(1-methylethenyl)-2-cyclohexen-1-yl]-5-pentyl-1,3-benzenediol]	reduction in CD81	dose-dependent decrease	dose-dependent decrease	39-58%	decreased	dose-dependent decrease	dose-dependent decrease	80	up to 79%	up to 125%	55	86	statistically significant, dose-dependent decrease	statistically significant, dose-dependent decrease	dose-dependent decrease	reduction	no effects on cell viability	did not inhibit	lower phosphorylation of Histone H1	
CCCCCc1cc(O)c2c(c1)OC(C)(C)[C@@H]1CCC(C)=C[C@@H]21 [THC, Δ9-tetrahydrocannabinol]	reduction in CD81	dose-dependent decrease	dose-dependent decrease		decrease in CD81	dose-dependent decrease	dose-dependent decrease			≤ 57%			statistically significant, dose-dependent decrease	statistically significant, dose-dependent decrease		reduction	no effects on cell viability		lower phosphorylation of Histone H1	up to 37%
